In ChEMBL document CHEMBL1157454, “Citral derived amides as potent bacterial NorA efflux pump inhibitors” (2008):
Values after ≈ are worked out from the molar mass of the structure shown. Active and inactive are the calls of the source. The rule behind the calls is not given here.

What was measured:
Staphylococcus aureus [1] = test: Antimicrobial activity against NorA overexpressing Staphylococcus aureus 1199B at 100 ug/ml after 18 hrs by twofold serial dilution method; format: functional, organism-based
Staphylococcus aureus [2] = test: Antimicrobial activity against Staphylococcus aureus 1199 at 100 ug/ml after 18 hrs by twofold serial dilution method; format: functional, organism-based
[3] = molecular target: T1, Quinolone resistance protein NorA (Staphylococcus aureus) (UniProt P0A0J7); test: Inhibition of NorA efflux pump in Staphylococcus aureus 1199 assessed as fold reduction of ciprofloxacin MIC at 25 ug/ml
T1 sequence (whole entry): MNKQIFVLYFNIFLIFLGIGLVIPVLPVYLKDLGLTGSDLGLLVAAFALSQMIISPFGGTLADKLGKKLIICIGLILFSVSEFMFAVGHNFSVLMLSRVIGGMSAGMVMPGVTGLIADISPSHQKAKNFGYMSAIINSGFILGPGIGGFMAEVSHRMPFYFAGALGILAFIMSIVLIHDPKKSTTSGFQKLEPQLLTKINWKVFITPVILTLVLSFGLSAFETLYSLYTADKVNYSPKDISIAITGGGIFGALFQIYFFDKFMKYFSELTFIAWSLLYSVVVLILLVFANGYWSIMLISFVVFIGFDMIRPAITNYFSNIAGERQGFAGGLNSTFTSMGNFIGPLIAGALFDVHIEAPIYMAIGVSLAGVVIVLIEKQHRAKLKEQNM

[4] = molecular target: T1, Quinolone resistance protein NorA (Staphylococcus aureus); test: Inhibition of NorA efflux pump in Staphylococcus aureus 1199B assessed as fold reduction of ciprofloxacin MIC at 12.5 ug/ml
[5] = molecular target: T1, Quinolone resistance protein NorA (Staphylococcus aureus); test: Inhibition of NorA efflux pump in Staphylococcus aureus 1199B assessed as fold reduction of ciprofloxacin MIC at 25 ug/ml
[6] = molecular target: T1, Quinolone resistance protein NorA (Staphylococcus aureus); test: Inhibition of NorA efflux pump in Staphylococcus aureus 1199B assessed as fold reduction of ciprofloxacin MIC at 6.25 ug/ml
[7] = molecular target: T1, Quinolone resistance protein NorA (Staphylococcus aureus); test: Inhibition of NorA efflux pump in Staphylococcus aureus 1199 assessed as fold reduction of ciprofloxacin MIC at 6.25 ug/ml
[8] = molecular target: T1, Quinolone resistance protein NorA (Staphylococcus aureus); test: Inhibition of NorA efflux pump in Staphylococcus aureus 1199 assessed as fold reduction of ciprofloxacin MIC at 12.5 ug/ml
[9] = molecular target: T1, Quinolone resistance protein NorA (Staphylococcus aureus)
[10] = molecular target: T1, Quinolone resistance protein NorA (Staphylococcus aureus); settings: 1199B

SMILES | Activity (Staphylococcus aureus [1]) | Activity (Staphylococcus aureus [2]) | fold reduction [5] | also measured
CC(C)=CCC/C(C)=C/C=C/C(=O)Nc1ccccc1C | inactive | inactive | – | –
CC(C)=CCC/C(C)=C/C=C/C(=O)NCC(C)C | inactive | inactive | – | –
CC(C)=CCC/C(C)=C/C=C/C(=O)Nc1ccccc1 | inactive | inactive | – | –
CC(C)=CCC/C(C)=C/C=C/C(=O)NCc1ccccc1 | inactive | inactive | 4 | fold reduction [3]: 2; fold reduction [4]: 2
CC(C)=CCC/C(C)=C/C=C/C(=O)N(C(C)C)C(C)C | inactive | inactive | 4 | fold reduction [3]: 2
CC(C)=CCC/C(C)=C/C=C/C(=O)NC(C)C | inactive | inactive | – | –
C/C(C=O)=C\CC/C(C)=C/C=C/C(=O)N1CCCCC1 | inactive | inactive | 4 | fold reduction [6]: 2; fold reduction [7]: 2
C/C(C=O)=C\CC/C(C)=C/C=C/C(=O)N(C(C)C)C(C)C | inactive | inactive | 4 | fold reduction [4]: 2
CC(C)=CCC/C(C)=C/C=C/C(=O)N1CCCCC1 | inactive | inactive | – | fold reduction [8]: 2; fold reduction [4]: 2
COc1ccccc1NC(=O)/C=C/C=C(\C)CCC=C(C)C | inactive | inactive | 4 | fold reduction [3]: 2
CCCCCCCCNC(=O)/C=C/CC(C)CCC=C(C)C (stereo not given) | inactive | inactive | – | –
COc1ccc(NC(=O)/C=C/C=C(\C)CCC=C(C)C)cc1 | inactive | inactive | – | –
CC(C)=CCCC(C)C/C=C/C(=O)N1CCCCC1 (stereo not given) | inactive | inactive | – | fold reduction [4]: 2
COc1ccccc1NC(=O)/C=C/CC(C)CC/C=C(\C)C=O (stereo not given) | inactive | inactive | 4 | –
C/C(C=O)=C\CC/C(C)=C/C=C/C(=O)N1CCCC1 | inactive | inactive | – | –
CCCCCCCCNC(=O)/C=C/C=C(\C)CCC=C(C)C | inactive | inactive | 4 | fold reduction [8]: 2; fold reduction [3]: 4; fold reduction [4]: 2

SMILES | Activity (Staphylococcus aureus [1]) | Activity (Staphylococcus aureus [2]) | fold reduction [5] | also measured
C/C(C=O)=C\CC/C(C)=C/C=C/C(=O)NCc1ccccc1 | inactive | inactive | 4 | fold reduction [3]: 2; fold reduction [4]: 2
COC(=O)[C@H]1[C@H]2C[C@@H]3c4[nH]c5cc(OC)ccc5c4CCN3C[C@H]2C[C@@H](OC(=O)c2cc(OC)c(OC)c(OC)c2)[C@@H]1OC | – | – | 4 | fold reduction [3]: 2
O=C(/C=C/C=C/c1ccc2c(c1)OCO2)N1CCCCC1 | – | – | – | MIC [9]: 2 µg/mL (≈ 7.01 µM); MIC [10]: 2 µg/mL (≈ 7.01 µM)
CC(C)c1cc2c(c(O)c1O)[C@@]1(C(=O)O)CCCC(C)(C)[C@@H]1CC2 | – | – | 2 | fold reduction [3]: 2
CC(C)=CCC/C(C)=C/C=C/C(=O)N1CCCC1 | inactive | inactive | – | –
C/C(C=O)=C\CCC(C)CCCC(=O)NCc1ccccc1 (stereo not given) | inactive | inactive | – | –
CCCCCCCCNC(=O)CCCC(C)CCC=C(C)C (stereo not given) | inactive | inactive | – | –
CC(C)=CCC/C(C)=C/C=C/C(=O)N1CCOCC1 | inactive | inactive | – | –
COc1ccccc1NC(=O)CCCC(C)CCC=C(C)C (stereo not given) | inactive | inactive | – | –
CC(C)=CCCC(C)C/C=C/C(=O)NCc1ccccc1 (stereo not given) | inactive | inactive | – | MIC [9]: 4 µg/mL (≈ 14 µM); MIC [10]: 4 µg/mL (≈ 14 µM)
C/C(C=O)=C\CC/C(C)=C/C=C/C(=O)N1CCOCC1 | inactive | inactive | – | –
COc1ccccc1NC(=O)/C=C/CC(C)CCC=C(C)C (stereo not given) | inactive | inactive | – | fold reduction [4]: 2
CC(C)=CCC/C(C)=C/C=C/C(=O)O | inactive | inactive | – | –
CCCCCCCCNC(=O)/C=C/CC(C)CC/C=C(\C)C=O (stereo not given) | inactive | inactive | 4 | –
C/C(C=O)=C\CCC(C)CCCC(=O)N1CCCCC1 (stereo not given) | inactive | inactive | – | –
CCCCCCCCNC(=O)/C=C/C=C(\C)CC/C=C(\C)C=O | inactive | inactive | 4 | fold reduction [8]: 2; fold reduction [3]: 2; fold reduction [4]: 2
